As usually defined, the IC50 is the concentration that inhibits the measured activity by half.

The results in this text go back to patent publication US10160747B2, “Compounds and methods for kinase modulation, and indications therefor” (Plexxikon Inc., priority 2016, dated 2018).

The target in one assay is T1, FLT3-ITD (Homo sapiens, UniProt P36888).
T1 sequence (P36888 1-993): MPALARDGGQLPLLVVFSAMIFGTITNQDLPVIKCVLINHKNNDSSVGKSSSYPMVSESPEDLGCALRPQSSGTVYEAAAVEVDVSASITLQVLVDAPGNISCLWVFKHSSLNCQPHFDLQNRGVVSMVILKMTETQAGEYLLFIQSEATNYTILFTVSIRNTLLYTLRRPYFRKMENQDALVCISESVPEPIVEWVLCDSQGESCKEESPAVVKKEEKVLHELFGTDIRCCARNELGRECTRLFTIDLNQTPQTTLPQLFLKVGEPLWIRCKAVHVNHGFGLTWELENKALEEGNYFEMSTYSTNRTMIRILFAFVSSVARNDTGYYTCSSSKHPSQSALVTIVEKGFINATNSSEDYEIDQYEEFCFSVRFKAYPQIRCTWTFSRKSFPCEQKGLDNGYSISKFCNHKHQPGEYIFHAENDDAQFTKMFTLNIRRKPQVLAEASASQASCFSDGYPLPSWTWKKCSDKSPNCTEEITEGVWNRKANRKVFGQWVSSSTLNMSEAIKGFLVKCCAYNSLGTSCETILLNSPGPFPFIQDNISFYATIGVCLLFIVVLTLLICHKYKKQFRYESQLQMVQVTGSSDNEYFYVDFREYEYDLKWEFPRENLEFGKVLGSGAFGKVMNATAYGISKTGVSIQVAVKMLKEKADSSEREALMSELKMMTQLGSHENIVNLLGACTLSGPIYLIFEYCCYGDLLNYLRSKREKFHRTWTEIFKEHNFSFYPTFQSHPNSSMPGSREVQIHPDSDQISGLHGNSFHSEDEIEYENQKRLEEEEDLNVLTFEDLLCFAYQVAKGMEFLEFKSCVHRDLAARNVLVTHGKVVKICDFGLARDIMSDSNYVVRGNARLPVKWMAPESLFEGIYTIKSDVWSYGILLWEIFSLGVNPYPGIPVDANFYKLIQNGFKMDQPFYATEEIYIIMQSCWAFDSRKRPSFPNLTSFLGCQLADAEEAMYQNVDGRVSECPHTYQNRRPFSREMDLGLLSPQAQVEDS
As to the kind of experiment: FLT3-ITD recombinant enzyme kinase assay (AlphaScreen). To be noted: 8 pt; read-out: FLT3_ITD 8 pt: IC50. It is filed as biochemical. The method, then:
(§1) In order to determine the effect of compounds on FLT3 catalytic activity, kinase assays using recombinant enzymes and AlphaScreen® technology have been established. The catalytic activity of c-kit activity was also measured to determine selectivity of the compounds. When the kinases are catalytically active, they phosphorylate a biotinylated peptide substrate on tyrosine residues. Using AlphaScreen® technology, the ability of the compounds to affect the catalytic activity of the kinases can be measured quantitatively. The peptide substrate is immobilized by the AlphaScreen® Streptavidin Donor beads and, upon phosphorylation by a tyrosine kinase, can bind to AlphaScreen® Anti-Phosphotyrosine (PY20) Acceptor beads. Upon excitation of these beads with laser light at 680 nm, singlet oxygen is produced. This singlet oxygen is rapidly quenched, unless the AlphaScreen® Anti-Phosphotyrosine (PY20) Acceptor beads are in close proximity, in which case a proximity signal can be measured at 580 nm. In the presence of catalytic activity, there is a very strong proximity signal. Selective kinase inhibitors affect a decrease in this proximity signal through a decrease in tyrosine phosphorylation of the peptide substrate.
(§2) The assay was performed as summarized below.
(§3) Poly (Glu4-Tyr) Peptide, biotin conjugate [Biotin-GG(EEEEY)10EE] (SEQ ID NO: 4)
(§4) Final concentration=30 nM
(§5) Adenosine Triphosphate (ATP)
(§6) Final concentration for IC50 determination=10 μM (FLT3-D835Y or FLT3-ITD) or 100 μM (c-KIT)
(§7) AlphaScreen® Phosphotyrosine (PY20) Assay Kit
(§8) Final concentration=10 μg/mL
(§9) Dilute compounds in DMSO to 20× final concentration.
(§10) Add 1 μL of compound to each well of 384 well reaction plate (Perkin Elmer #6005359).
(§11) Mix enzyme and Poly (Glu4-Tyr) Peptide substrate at 1.33× final concentration in assay buffer.
(§12) Mix ATP at 5× final concentration in assay buffer.
(§13) Add 15 μL enzyme/substrate mixture to the reaction plate.
(§14) Add 4 μL of ATP to the reaction plate.
(§15) Mix Streptavidin Donor beads at 6× final concentration in Stop/Detection buffer.
(§16) Add 5 μL Streptavidin Donor beads to the reaction plate. Centrifuge 1 minute, shake to mix, and incubate at room temperature for 20 minutes.
(§17) Mix Anti-Phosphotyrosine (PY20) Acceptor beads at 6× final concentration in Stop/Detection buffer.
(§18) Add 5 μL Anti-Phosphotyrosine (PY20) beads to the reaction plate.
(§19) Centrifuge 1 minute, shake to mix, and incubate at room temperature for 60 minutes.
(§20) Read plate on Wallac EnVision™ 2103 Multilabel Reader.
(In general: Alpha assays give light when donor and acceptor beads are brought close together.)

In another assay the target is T2, FLT3-D835Y (Homo sapiens, UniProt P36888, D835Y).
T2 construct: purchased Invitrogen PV3967
T2 sequence (P36888 27-993 D835Y): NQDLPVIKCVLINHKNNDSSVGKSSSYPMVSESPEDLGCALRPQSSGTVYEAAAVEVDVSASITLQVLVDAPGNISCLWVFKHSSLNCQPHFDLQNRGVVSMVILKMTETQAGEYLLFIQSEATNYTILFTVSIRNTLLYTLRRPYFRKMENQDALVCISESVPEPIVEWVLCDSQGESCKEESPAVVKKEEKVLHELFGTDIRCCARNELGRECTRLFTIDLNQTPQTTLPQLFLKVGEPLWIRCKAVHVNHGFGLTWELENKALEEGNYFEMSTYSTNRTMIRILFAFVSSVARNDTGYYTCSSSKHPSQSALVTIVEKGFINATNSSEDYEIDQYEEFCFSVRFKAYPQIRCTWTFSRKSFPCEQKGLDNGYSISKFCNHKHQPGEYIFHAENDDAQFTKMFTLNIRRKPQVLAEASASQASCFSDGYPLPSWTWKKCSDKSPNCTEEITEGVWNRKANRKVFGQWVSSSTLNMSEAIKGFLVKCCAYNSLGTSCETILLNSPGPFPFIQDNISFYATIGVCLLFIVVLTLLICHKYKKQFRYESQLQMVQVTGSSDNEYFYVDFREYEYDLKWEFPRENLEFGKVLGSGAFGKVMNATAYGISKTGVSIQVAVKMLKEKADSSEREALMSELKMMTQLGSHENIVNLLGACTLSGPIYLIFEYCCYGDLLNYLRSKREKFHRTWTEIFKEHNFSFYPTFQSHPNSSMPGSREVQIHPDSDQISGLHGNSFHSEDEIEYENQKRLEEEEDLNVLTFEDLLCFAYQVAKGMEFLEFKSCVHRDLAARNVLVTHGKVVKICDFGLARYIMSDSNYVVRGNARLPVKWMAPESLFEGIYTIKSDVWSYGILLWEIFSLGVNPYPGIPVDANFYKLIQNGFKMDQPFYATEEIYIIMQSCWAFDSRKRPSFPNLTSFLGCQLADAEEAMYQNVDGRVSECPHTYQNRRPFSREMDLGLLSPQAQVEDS
Nature of the assay: FLT3-D835Y recombinant enzyme kinase assay (AlphaScreen). To be noted: 8 pt, GMean. It counts as biochemical. As for the experimental part: as §1, §2, §3, §4, §5, §6, §7, §8, §9, §10, §11, §12, §13, §14, §15, §16, §17, §18, §19, §20

Consider `Cc1n[nH]c2ncc(-c3ccc(CC(=O)Nc4cncc(C(F)(F)F)c4)cc3F)cc12` [Compound P-0177, 2-[3-fluoro-4-(3-methyl-1H-pyrazolo[3,4-b]pyridin-5-yl)phenyl]-N-[5-(trifluoromethyl)-3-pyridyl]acetamide], for which the IC50 at FLT3-ITD and on FLT3-D835Y was 0.0001 to 10 µM throughout.
Consider `Cn1cc(Nc2ncc(-c3ccc(CC(=O)Nc4ccc(C(F)(F)F)cn4)cc3)cn2)cn1` [Compound P-0109, 2-[4-[2-[(1-methylpyrazol-4-yl)amino]pyrimidin-5-yl]phenyl]-N-[5-(trifluoromethyl)-2-pyridyl]acetamide], for which the IC50 on FLT3-ITD and at FLT3-D835Y was 0.0001 to 10 µM in each case.
For `Cn1cc(Nc2ncc(-c3ccc(CC(=O)Nc4cccc(C(C)(C)C#N)c4)cc3)cn2)cn1` [Compound P-0158, N-[3-(1-cyano-1-methyl-ethyl)phenyl]-2-[4-[2-[(1-methylpyrazol-4-yl)amino]pyrimidin-5-yl]phenyl]acetamide], the IC50 on FLT3-ITD and at FLT3-D835Y was 0.0001 to 10 µM throughout.
For the molecule `N#Cc1ccc(-c2cc3cc(-c4ccc(CC(=O)Nc5cncc(C(F)(F)F)c5)cc4F)cnc3[nH]2)cn1` [Compound P-0195, 2-[4-[2-(6-cyano-3-pyridyl)-1H-pyrrolo[2,3-b]pyridin-5-yl]-3-fluoro-phenyl]-N-[5-(trifluoromethyl)-3-pyridyl]acetamide], the IC50 at FLT3-ITD and at FLT3-D835Y was 0.0001 to 10 µM throughout.
Regarding `CCn1cc(Nc2ncc(-c3ccc(CC(=O)Nc4cncc(C(F)(F)F)c4)cc3)cn2)cn1` [Compound P-0166, 2-[4-[2-[(1-ethylpyrazol-4-yl)amino]pyrimidin-5-yl]phenyl]-N-[5-(trifluoromethyl)-3-pyridyl]acetamide], the 50% inhibitory concentration (IC50) on FLT3-ITD and on FLT3-D835Y was 0.0001 to 10 µM each time.
As for `Cn1cc(Nc2ncc(-c3ccc(CC(=O)Nc4ccnc(C5CC5)c4)cc3)cn2)cn1` [Compound P-0097, N-(2-cyclopropyl-4-pyridyl)-2-[4-[2-[(1-methylpyrazol-4-yl)amino]pyrimidin-5-yl]phenyl]acetamide], the IC50 on FLT3-ITD and on FLT3-D835Y was 0.0001 to 10 µM each time.
Turning to `Cn1cc(Nc2ncc(-c3ccc(CC(=O)Nc4cncc(C(C)(F)F)c4)cc3)cn2)cn1` [Compound P-0144, N-[5-(1,1-difluoroethyl)-3-pyridyl]-2-[4-[2-[(1-methylpyrazol-4-yl)amino]pyrimidin-5-yl]phenyl]acetamide], the IC50 at FLT3-ITD and at FLT3-D835Y was 0.0001 to 10 µM throughout.
Take `Cn1cc(Nc2ncc(-c3ccc(CC(=O)Nc4ccc(C(F)(F)F)c(F)c4)cc3)cn2)cn1` [Compound P-0142, N-[3-fluoro-4-(trifluoromethyl)phenyl]-2-[4-[2-[(1-methylpyrazol-4-yl)amino]pyrimidin-5-yl]phenyl]acetamide]: the IC50 at FLT3-ITD and on FLT3-D835Y was 0.0001 to 10 µM throughout.
Regarding `CCc1cncc(NC(=O)Cc2ccc(-c3cnc(Nc4cnn(C)c4)nc3)cc2F)c1` [Compound P-0111, N-(5-ethyl-3-pyridyl)-2-[2-fluoro-4-[2-[(1-methylpyrazol-4-yl)amino]pyrimidin-5-yl]phenyl]acetamide], the IC50 at FLT3-ITD and on FLT3-D835Y was 0.0001 to 10 µM in each case.
On to `CCn1cc(Nc2ncc(-c3ccc(CC(=O)Nc4cnc(Cl)c(C(F)(F)F)c4)cc3)cn2)cn1` [Compound P-0165, N-[6-chloro-5-(trifluoromethyl)-3-pyridyl]-2-[4-[2-[(1-ethylpyrazol-4-yl)amino]pyrimidin-5-yl]phenyl]acetamide], for which the IC50 on FLT3-ITD and on FLT3-D835Y was 0.0001 to 10 µM throughout.
On to `Cn1cc(Nc2ncc(-c3ccc(CC(=O)Nc4cnc(F)c(C(C)(F)F)c4)c(F)c3)cn2)cn1` [Compound P-0105, N-[5-(1,1-difluoroethyl)-6-fluoro-3-pyridyl]-2-[2-fluoro-4-[2-[(1-methylpyrazol-4-yl)amino]pyrimidin-5-yl]phenyl]acetamide], for which the IC50 on FLT3-ITD and at FLT3-D835Y was 0.0001 to 10 µM throughout.
Take `Cn1cc(Nc2ncc(-c3ccc(CC(=O)Nc4ccc(C(F)(F)F)nc4)c(F)c3)cn2)cn1` [Compound P-0110, 2-[2-fluoro-4-[2-[(1-methylpyrazol-4-yl)amino]pyrimidin-5-yl]phenyl]-N-[6-(trifluoromethyl)-3-pyridyl]acetamide]: the IC50 at FLT3-ITD and on FLT3-D835Y was 0.0001 to 10 µM each time.
As for `Cn1cnc(Nc2ncc(-c3ccc(CC(=O)Nc4cnc(F)c(C(C)(F)F)c4)cc3)cn2)c1` [Compound P-0168, N-[5-(1,1-difluoroethyl)-6-fluoro-3-pyridyl]-2-[4-[2-[(1-methylimidazol-4-yl)amino]pyrimidin-5-yl]phenyl]acetamide], the IC50 on FLT3-ITD and on FLT3-D835Y was 0.0001 to 10 µM each time.
For `COc1cncc(NC(=O)Cc2ccc(-c3cnc(Nc4cnn(C)c4)nc3)cc2)c1` [Compound P-0133, N-(5-methoxy-3-pyridyl)-2-[4-[2-[(1-methylpyrazol-4-yl)amino]pyrimidin-5-yl]phenyl]acetamide], the IC50 on FLT3-ITD and at FLT3-D835Y was 0.0001 to 10 µM throughout.
Regarding `Cn1cc(Nc2ncc(-c3ccc(CC(=O)Nc4ccc(C(C)(C)C#N)nc4)cc3)cn2)cn1` [Compound P-0146, N-[6-(1-cyano-1-methyl-ethyl)-3-pyridyl]-2-[4-[2-[(1-methylpyrazol-4-yl)amino]pyrimidin-5-yl]phenyl]acetamide], the IC50 on FLT3-ITD and at FLT3-D835Y was 0.0001 to 10 µM each time.
Take `Cn1cnc(Nc2ncc(-c3ccc(CC(=O)Nc4cncc(C(F)(F)F)c4)cc3)cn2)c1` [Compound P-0167]: the IC50 at FLT3-ITD and at FLT3-D835Y was 0.0001 to 10 µM in each case.
